The values below come from US10266520B2, “Bisamidinium-based inhibitors for the treatment of myotonic dystrophy” (The Board of Trustees of the University of Illinois, priority 2014, dated 2019).

In general, Kd refers to the concentration at which binding is half-saturated.

The target in assay [1] is (CUG)12. In words: Isothermal titration calorimetry (ITC) binding to (CUG)12. To be noted: 25° C., read-out: KD, binding affinity toward (CUG)12. The method, then: The alkyne and azide moieties were chosen because of their small size, excellent stability, and ultimate bioorthogonality. […] This finding enables the rapid development of a wide range of functional derivatives of ligand 1a using the [3+2] alkyne-azide cycloaddition (‘click reaction’) of 1b and 1c.
The ligand stock solution (10 mM in water). MOPS buffer (100 mM; pH 7.0±0.2), and NaCl (5000 mM) were prepared. The ligand solution (1 mL) contained of 0.5 mM of ligand, 20 mM of MOPS buffer, and 150 mM of NaCl. The RNA solution (2 mL) contained 0.02 mM of RNA, 20 mM of MOPS buffer, and 150 mM of NaCl. The resulting RNA solution was heated in a water bath at 90° C. for 5 min, then allowed to cool to room temperature for 2 h.
ITC measurements were performed at 25° C. on a MicroCal VP-ITC calorimeter (Northampton, Mass.). A typical experiment consisted of titrating 10 μL of a ligand solution (500 μM) from a 250 μL syringe (stirred at 300 rpm) into a sample cell containing 1.42 mL of a RNA solution (10 μM) with total 28 injections. The initial delay prior to the first injection was 60 s. The duration of each injection was 24 s and the delay between injections was 300 s. […] Binding parameters such as the dissociation constant (KD), enthalpy change (ΔH), and entropy change (ΔS) were determined by fitting the experimental binding isotherms with various model. […]

In assay [2] the test system is MBNL1-rCUG^exp nuclear foci. Particulars: cited from earlier work.
Assay [3] deals with insulin receptor (IR) pre-mRNA splicing. Particulars: DM1 model cells; cited from earlier work.

Turning to `N=C(NCCCCNc1nc(N)nc(N)n1)c1ccc(C(=N)NCCCCNc2nc(N)nc(N)n2)cc1` [Compound 1a], the Kd in assay [1] was 8 µM. The “reduction of foci to (previous study)” value in assay [2] (100 μM, previous study) was 32%. For the same molecule, the “MBNL1-rCUG^exp nuclear foci in DM1 model cells (earlier work)” value in assay [2] (earlier work) is listed as “dissolved foci”. The “mis-splicing of cTNT and IR pre-mRNA (earlier work)” value in assay [3] is “partially rescuing the mis-splicing”.
